Where a name gives a salt, the structure may show the parent alone.
Key:
[1] = test system: Pfeiffer cell line (diffuse large B cell lymphoma); test: Pfeiffer cell proliferation assay; format: cell-based; conditions: Pfeiffer cells, 3-4 days plus 12 hours [3H]-thymidine incorporation
Experimental: Example C: Pfeiffer Cell Proliferation Assay
Pfeiffer cell line (diffuse large B cell lymphoma) was purchased from ATCC (Manassas, Va.) and maintained in the culture medium recommended (RPMI and 10% FBS). To measure the anti-proliferation activity of the compounds, the Pfeiffer cells were plated with the culture medium (2×10^3 cells/well/per 200 μl) into 96-well ultra-low binding plates (Corning, Corning, N.Y.), in the presence or absence of a concentration range of test compounds. After 3-4 days, [^3H]-thymidine (1 μCi/well) (PerkinElmer, Boston, Mass.) in PBS was then added to the cell culture for an additional 12 hours before the incorporated radioactivity was separated by filtration with water through GF/B filters (Packard Bioscience, Meridenj, Conn.) and measured by liquid scintillation counting with a TopCount (Packard Bioscience).

[2] = target: T1, PI3Kδ (p110δ/p85α) (Homo sapiens, UniProt O00329); test: PI3Kδ scintillation proximity assay; format: biochemical; conditions: 20 μM ATP, 4 nM PI3Kδ
T1 construct: purchased Millipore (Bedford, Mass.)
T1 sequence (O00329 whole entry, species assumed): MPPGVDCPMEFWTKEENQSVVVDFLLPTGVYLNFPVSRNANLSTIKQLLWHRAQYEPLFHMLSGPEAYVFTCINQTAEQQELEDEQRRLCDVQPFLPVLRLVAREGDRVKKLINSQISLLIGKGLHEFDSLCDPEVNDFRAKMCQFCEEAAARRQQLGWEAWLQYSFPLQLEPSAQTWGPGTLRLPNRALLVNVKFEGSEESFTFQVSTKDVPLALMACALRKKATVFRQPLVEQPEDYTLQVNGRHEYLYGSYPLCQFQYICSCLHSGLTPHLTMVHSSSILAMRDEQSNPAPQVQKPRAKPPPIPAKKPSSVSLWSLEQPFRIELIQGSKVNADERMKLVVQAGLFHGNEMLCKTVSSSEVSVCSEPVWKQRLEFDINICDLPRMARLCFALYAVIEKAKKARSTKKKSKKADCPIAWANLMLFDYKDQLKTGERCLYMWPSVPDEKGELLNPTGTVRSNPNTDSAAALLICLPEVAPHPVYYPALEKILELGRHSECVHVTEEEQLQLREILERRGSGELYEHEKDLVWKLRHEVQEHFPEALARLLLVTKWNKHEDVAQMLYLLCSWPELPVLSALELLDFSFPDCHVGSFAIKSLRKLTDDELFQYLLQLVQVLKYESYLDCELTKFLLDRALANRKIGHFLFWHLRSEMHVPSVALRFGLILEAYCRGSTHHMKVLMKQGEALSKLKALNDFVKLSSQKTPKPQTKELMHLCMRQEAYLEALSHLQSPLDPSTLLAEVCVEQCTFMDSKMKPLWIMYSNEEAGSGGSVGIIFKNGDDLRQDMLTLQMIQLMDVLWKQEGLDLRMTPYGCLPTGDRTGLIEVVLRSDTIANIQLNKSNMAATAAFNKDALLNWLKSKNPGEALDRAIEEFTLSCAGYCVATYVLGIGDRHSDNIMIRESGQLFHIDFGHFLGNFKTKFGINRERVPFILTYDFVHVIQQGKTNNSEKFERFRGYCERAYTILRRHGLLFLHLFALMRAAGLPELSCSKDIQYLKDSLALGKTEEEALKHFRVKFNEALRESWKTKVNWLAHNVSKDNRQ
T1 sequence (P27986 whole entry partner, species assumed): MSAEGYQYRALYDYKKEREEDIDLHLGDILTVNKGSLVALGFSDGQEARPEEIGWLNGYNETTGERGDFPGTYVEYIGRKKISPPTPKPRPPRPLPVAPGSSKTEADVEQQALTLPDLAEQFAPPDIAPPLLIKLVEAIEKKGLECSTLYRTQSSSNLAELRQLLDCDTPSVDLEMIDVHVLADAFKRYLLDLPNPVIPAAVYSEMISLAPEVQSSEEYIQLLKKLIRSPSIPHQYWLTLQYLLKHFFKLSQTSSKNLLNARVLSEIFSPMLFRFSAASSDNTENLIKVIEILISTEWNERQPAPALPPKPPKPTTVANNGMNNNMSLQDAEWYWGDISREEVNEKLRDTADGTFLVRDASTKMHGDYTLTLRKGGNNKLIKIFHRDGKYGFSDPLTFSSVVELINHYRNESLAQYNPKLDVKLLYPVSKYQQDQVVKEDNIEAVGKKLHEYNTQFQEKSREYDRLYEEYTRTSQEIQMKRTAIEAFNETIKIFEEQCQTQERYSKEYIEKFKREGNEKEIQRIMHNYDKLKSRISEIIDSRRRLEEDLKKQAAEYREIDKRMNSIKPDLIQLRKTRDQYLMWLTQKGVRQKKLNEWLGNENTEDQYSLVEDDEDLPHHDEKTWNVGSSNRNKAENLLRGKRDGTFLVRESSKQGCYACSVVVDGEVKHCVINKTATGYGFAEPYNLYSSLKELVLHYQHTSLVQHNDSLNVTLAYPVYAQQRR
In short: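 p110δ/p85α (4 nM) phosphorylated 20 μM PIP2 with 20 μM ATP plus [γ-33P]ATP in 20 mM MOPS pH 6.7, 10 mM MgCl2, 5 mM DTT, 0.03% CHAPS, 0.5% DMSO, 210 min at room temperature. EDTA quench, WGA SPA bead capture, scintillation counting; IC50 from log-concentration fit.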

Row | IC50 ([1]; Homo sapiens, Pfeiffer) [µM] | IC50 [2] [µM] | IC50 [1] [µM] | Structure (SMILES)
1 | 0.5 to 1 |  |  | Cc1c(Cl)cc(C(C)Nc2ncnc3[nH]cnc23)c(-c2cccc(F)c2)c1C#N (stereo not drawn) [Example 1, 4-Chloro-3′-fluoro-3-methyl-6-[1-(9H-purin-6-ylamino)ethyl]biphenyl-2-carbonitrile]
2 | < 0.1 | < 0.05 |  | Cc1c(Cl)cc(C(C)Nc2ncnc3[nH]cnc23)c(-c2cccc(F)c2)c1C(N)=O (stereo not drawn) [Example 2, 4-Chloro-3′-fluoro-3-methyl-6-[1-(9H-purin-6-ylamino)ethyl]biphenyl-2-carboxamide]
3 | > 1 | 0.1 to 0.25 |  | Cc1c(Cl)cc(C(C)Nc2ncnc3[nH]cnc23)c(-c2cccc(F)c2)c1[N+](=O)[O-] (stereo not drawn) [Example 3, N-[1-(4-chloro-3′-fluoro-5-methyl-6-nitrobiphenyl-2-yl)ethyl]-9H-purin-6-amine]
4 | < 0.1 | < 0.05 |  | Cc1c(Cl)cc(C(C)Nc2ncnc3[nH]cnc23)c(-c2cccc(F)c2)c1N1CCCC1=O (stereo not drawn) [Example 5, 1-{4-Chloro-3′-fluoro-3-methyl-6-[1-(9H-purin-6-ylamino)ethyl]biphenyl-2-yl}pyrrolidin-2-one]
5 | < 0.1 | < 0.05 |  | Cc1c(Cl)cc(C(C)Nc2ncnc3[nH]cnc23)c(-c2cc(F)cc(F)c2)c1N1CCCC1=O (stereo not drawn) [Example 6, 1-{4-Chloro-3′,5′-difluoro-3-methyl-6-[1-(9H-purin-6-ylamino)ethyl]biphenyl-2-yl}pyrrolidin-2-one trifluoroacetate]
6 | < 0.1 | < 0.05 |  | Cc1c(Cl)cc(C(C)Nc2ncnc3[nH]cnc23)c(-c2cccc(F)c2)c1N1CCOC1=O (stereo not drawn) [Example 7, 3-{4-Chloro-3′-fluoro-3-methyl-6-[1-(9H-purin-6-ylamino)ethyl]biphenyl-2-yl}-1,3-oxazolidin-2-one]
7 | > 1 | < 0.05 |  | Cc1c(Cl)cc(C(C)Nc2ncnc3[nH]cnc23)c(-c2cccc(F)c2)c1-c1nnn[nH]1 (stereo not drawn) [Example 8, N-{1-[4-chloro-3′-fluoro-5-methyl-6-(1H-tetrazol-5-yl)biphenyl-2-yl]ethyl}-9H-purin-6-amine]
8 | 0.1 to 0.5 | 0.05 to 0.1 |  | CC(=O)Nc1c(C)c(Cl)cc(C(C)Nc2ncnc3[nH]cnc23)c1-c1cccc(F)c1 (stereo not drawn) [Example 9, N-{4-chloro-3′-fluoro-3-methyl-6-[1-(9H-purin-6-ylamino)ethyl]biphenyl-2-yl}acetamide]
9 | < 0.1 |  |  | COc1c(C(C)Nc2ncnc3[nH]cnc23)cc(Cl)c(C)c1-c1ccc(S(C)(=O)=O)cc1 (stereo not drawn) [Example 32, N-{1-[5-chloro-2-methoxy-6-methyl-4′-(methylsulfonyl)biphenyl-3-yl]ethyl}-9H-purin-6-amine]
10 | < 0.1 |  |  | COc1c(C(C)Nc2ncnc3[nH]cnc23)cc(Cl)c(C)c1-c1cnc(N)nc1 (stereo not drawn) [Example 33, N-{1-[3-(2-aminopyrimidin-5-yl)-5-chloro-2-methoxy-4-methylphenyl]ethyl}-9H-purin-6-amine]
11 | > 1 |  | 0.5 to 1 | COc1c(C(C)Nc2ncnc3[nH]cnc23)cc(Cl)c(C)c1-c1cc(F)ccc1F (stereo not drawn) [Example 50, N-[1-(5-chloro-2′,5′-difluoro-2-methoxy-6-methylbiphenyl-3-yl)ethyl]-9H-purin-6-amine]
12 | < 0.1 |  |  | COc1c(C(C)Nc2ncnc3[nH]cnc23)cc(Cl)c(C)c1-c1cncc(C#N)c1 (stereo not drawn) [Example 53, 5-{3-chloro-6-methoxy-2-methyl-5-[1-(9H-purin-6-ylamino)ethyl]phenyl}nicotinonitrile]
13 | < 0.1 |  |  | Cc1c(Cl)cc(C(C)Nc2ncnc3[nH]cnc23)c(-c2cccc(F)c2)c1-c1cnn(C)c1 (stereo not drawn) [Example 73, N-{1-[4-chloro-3′-fluoro-5-methyl-6-(1-methyl-1H-pyrazol-4-yl)biphenyl-2-yl]ethyl}-9H-purin-6-amine]
14 | > 1 |  |  | COc1c(C(C)Nc2ncnc3[nH]cnc23)cc(Cl)c(C)c1-c1cc(C(F)(F)F)ccc1F (stereo not drawn) [Example 86, N-{1-[5-chloro-2′-fluoro-2-methoxy-6-methyl-5′-(trifluoromethyl)biphenyl-3-yl]ethyl]-9H-purin-6-ami]
15 |  | < 0.05 |  | CNC(=O)c1cc(-c2c(C)c(Cl)cc(C(C)Nc3ncnc4[nH]cnc34)c2OC)cn1C (stereo not drawn) [Example 175, 4-{3-Chloro-6-methoxy-2-methyl-5-[1-(9H-purin-6-ylamino)ethyl]phenyl}-N,1-dimethyl-1H-pyrrole-2-carboxamide]
16 |  | < 0.05 |  | CCC(Nc1ncnc2[nH]cnc12)c1cc(Cl)c(C)c(-c2cncc(F)c2)c1OC (stereo not drawn) [Example 181, N-{1-[5-chloro-3-(5-fluoropyridin-3-yl)-2-methoxy-4-methylphenyl]propyl}-9H-purin-6-amine bis(2,2,2-trifluoroacetate)]
17 |  | < 0.05 |  | CCC(Nc1ncnc2[nH]cnc12)c1cc(Cl)c(C)c(-c2cncc(S(C)(=O)=O)c2)c1OC (stereo not drawn) [Example 182, N-(1-{5-chloro-2-methoxy-4-methyl-3-[5-(methylsulfonyl)pyridin-3-yl]phenyl}propyl)-9H-purin-6-amine bis(2,2,2-trifluoroacetate)]
18 |  | < 0.05 |  | COc1c(C(C)Nc2ncnc3[nH]cnc23)cc(Cl)c(C)c1-c1ccc(CO)nc1 (stereo not drawn) [Example 183, (5-{3-chloro-6-methoxy-2-methyl-5-[1-(9H-purin-6-ylamino)ethyl]phenyl}pyridin-2-yl)methanol bis(2,2,2-trifluoroacetate)]
19 |  | < 0.05 |  | COc1c(C(C)Nc2ncnc3[nH]cnc23)cc(Cl)c(C)c1-c1ccc(C(C)(C)O)nc1 (stereo not drawn) [Example 184, 2-(5-{3-chloro-6-methoxy-2-methyl-5-[1-(9H-purin-6-ylamino)ethyl]phenyl}pyridin-2-yl)propan-2-ol bis(2,2,2-trifluoroacetate)]
20 |  | < 0.05 |  | COc1c(C(C)Nc2ncnc3[nH]cnc23)cc(Cl)c(C)c1-c1ccc(C(C)(C)OC)nc1 (stereo not drawn) [Example 185, N-(1-{5-chloro-2-methoxy-3-[6-(1-methoxy-1-methylethyl)pyridin-3-yl]-4-methylphenyl}ethyl)-9H-purin-6-amine bis(2,2,2-trifluoroacetate)]
21 |  | < 0.05 |  | CCOc1c(C(C)Nc2ncnc3[nH]cnc23)cc(C)c(C#N)c1-c1cncc(S(C)(=O)=O)c1 (stereo not drawn) [Example 186, 3-ethoxy-6-methyl-2-[5-(methylsulfonyl)pyridin-3-yl]-4-[1-(9H-purin-6-ylamino)ethyl]benzonitrile bis(2,2,2-trifluoroacetate)]
22 |  | < 0.05 |  | COc1c(C(C)Nc2ncnc3[nH]cnc23)cc(Cl)c(F)c1CN1CCOCC1 (stereo not drawn) [Example 188, N-{1-[5-Chloro-4-fluoro-2-methoxy-3-(morpholin-4-ylmethyl)phenyl]ethyl}-9H-purin-6-amine]
23 |  | < 0.05 |  | COc1c(C(C)Nc2ncnc3[nH]cnc23)cc(Cl)c(C)c1C1CN(C(C)C)C(=O)O1 (stereo not drawn) [Example 189, 5-{3-Chloro-6-methoxy-2-methyl-5-[1-(9H-purin-6-ylamino)ethyl]phenyl}-3-isopropyl-1,3-oxazolidin-2-one trifluoroacetate]
24 |  | < 0.05 |  | COc1c(C(C)Nc2ncnc3[nH]cnc23)cc(Cl)c(C)c1C(O)CN1CCOCC1 (stereo not drawn) [Example 190, 1-{3-Chloro-6-methoxy-2-methyl-5-[1-(9H-purin-6-ylamino)ethyl]phenyl}-2-morpholin-4-ylethanol bis(trifluoroacetate)]
25 |  | < 0.05 |  | COc1c(C(C)Nc2ncnc3[nH]cnc23)cc(Cl)c(C)c1C1CN(C(C)C)C(=O)CO1 (stereo not drawn) [Example 191, 6-{3-Chloro-6-methoxy-2-methyl-5-[1-(9H-purin-6-ylamino)ethyl]phenyl}-4-isopropylmorpholin-3-one trifluoroacetate]
26 |  | < 0.05 |  | COc1c(C(C)Nc2ncnc3[nH]cnc23)cc(Cl)c(Cl)c1C1CN(C(C)C(F)(F)F)C1 (stereo not drawn) [Example 198, N-(1-{4,5-Dichloro-2-methoxy-3-[1-(2,2,2-trifluoro-1-methylethyl)azetidin-3-yl]phenyl}ethyl)-9H-purin-6-amine bistrifluoroacetate]
27 |  | < 0.05 |  | COc1c(C(C)Nc2ncnc3[nH]cnc23)cc(Cl)c(Cl)c1C1CN(CC#N)C1 (stereo not drawn) [Example 206, (3-{2,3-Dichloro-6-methoxy-5-[1-(9H-purin-6-ylamino)ethyl]phenyl}azetidin-1-yl)acetonitrile bis(trifluoroacetate)]
28 |  | < 0.05 |  | COc1c(C(C)Nc2ncnc3[nH]cnc23)cc(Cl)c(Cl)c1C1CN(CC(F)(F)F)C1 (stereo not drawn) [Example 207, N-(1-{4,5-Dichloro-2-methoxy-3-[1-(2,2,2-trifluoroethyl)azetidin-3-yl]phenyl}ethyl)-9H-purin-6-amine bis(trifluoroacetate)]
29 |  | < 0.05 |  | COc1c(C(C)Nc2ncnc3[nH]cnc23)cc(Cl)c(Cl)c1C1CN(C2CCC2)C1 (stereo not drawn) [Example 209, N-{1-[4,5-Dichloro-3-(1-cyclobutylazetidin-3-yl)-2-methoxyphenyl]ethyl}-9H-purin-6-amine bistrifluoroacetate]
30 |  | < 0.05 |  | CCOc1c(C(C)Nc2ncnc3[nH]cnc23)cc(C#N)c(F)c1-c1ccc(C(=O)N(C)C)nc1 (stereo not drawn) [Example 211, 5-{3-Cyano-6-ethoxy-2-fluoro-5-[1-(9H-purin-6-ylamino)ethyl]phenyl}-N,N-dimethylpyridine-2-carboxamide bis(trifluoroacetate)]

Row | Structure (SMILES) | IC50 ([1]; Homo sapiens, Pfeiffer) [µM] | IC50 [2] [µM] | IC50 [1] [µM]
31 | COc1c(C(C)Nc2ncnc3[nH]cnc23)cc(Cl)c(Cl)c1C1CN(CC(F)F)C1 (stereo not drawn) [Example 210, N-(1-{4,5-Dichloro-3-[1-(2,2-difluoroethyl)azetidin-3-yl]-2-methoxyphenyl}ethyl)-9H-purin-6-amine bis(trifluoroacetate)] |  | < 0.05 | 

From patent US9815839B2, “N-(1-(substituted-phenyl)ethyl)-9H-purin-6-amines as PI3K inhibitors” (Incyte Corporation, priority 2010, dated 2017)
